Test results reported in US12685735B2 (Foghorn Therapeutics Inc., priority 2020, dated 2026).
Read-outs that look alike come from different tables or passages of the source.

Key:
BRG-1 = BRG-1 (Homo sapiens, UniProt P51532); experiment: ATPase catalytic activity assay of BRG-1 (ADP-Glo); assay type: biochemical; details: ATPase catalytic activity, ADP-Glo; for Emax: read-out: BRG1 Max % Inhibition
Summary of the method: (§1)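 Measurement is luminescence, reflecting ADP produced by ATPase turnover. The two-step ADP-Glo detection consists of ATP depletion for 40 min and ADP-to-ATP conversion with luciferase for 60 min, both at room temperature.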

BRM = BRM (Homo sapiens, UniProt P51531); experiment: ATPase catalytic activity assay of BRM (ADP-Glo); assay type: biochemical
Summary of the method: as §1

Sequence of BRM (P51531 whole entry): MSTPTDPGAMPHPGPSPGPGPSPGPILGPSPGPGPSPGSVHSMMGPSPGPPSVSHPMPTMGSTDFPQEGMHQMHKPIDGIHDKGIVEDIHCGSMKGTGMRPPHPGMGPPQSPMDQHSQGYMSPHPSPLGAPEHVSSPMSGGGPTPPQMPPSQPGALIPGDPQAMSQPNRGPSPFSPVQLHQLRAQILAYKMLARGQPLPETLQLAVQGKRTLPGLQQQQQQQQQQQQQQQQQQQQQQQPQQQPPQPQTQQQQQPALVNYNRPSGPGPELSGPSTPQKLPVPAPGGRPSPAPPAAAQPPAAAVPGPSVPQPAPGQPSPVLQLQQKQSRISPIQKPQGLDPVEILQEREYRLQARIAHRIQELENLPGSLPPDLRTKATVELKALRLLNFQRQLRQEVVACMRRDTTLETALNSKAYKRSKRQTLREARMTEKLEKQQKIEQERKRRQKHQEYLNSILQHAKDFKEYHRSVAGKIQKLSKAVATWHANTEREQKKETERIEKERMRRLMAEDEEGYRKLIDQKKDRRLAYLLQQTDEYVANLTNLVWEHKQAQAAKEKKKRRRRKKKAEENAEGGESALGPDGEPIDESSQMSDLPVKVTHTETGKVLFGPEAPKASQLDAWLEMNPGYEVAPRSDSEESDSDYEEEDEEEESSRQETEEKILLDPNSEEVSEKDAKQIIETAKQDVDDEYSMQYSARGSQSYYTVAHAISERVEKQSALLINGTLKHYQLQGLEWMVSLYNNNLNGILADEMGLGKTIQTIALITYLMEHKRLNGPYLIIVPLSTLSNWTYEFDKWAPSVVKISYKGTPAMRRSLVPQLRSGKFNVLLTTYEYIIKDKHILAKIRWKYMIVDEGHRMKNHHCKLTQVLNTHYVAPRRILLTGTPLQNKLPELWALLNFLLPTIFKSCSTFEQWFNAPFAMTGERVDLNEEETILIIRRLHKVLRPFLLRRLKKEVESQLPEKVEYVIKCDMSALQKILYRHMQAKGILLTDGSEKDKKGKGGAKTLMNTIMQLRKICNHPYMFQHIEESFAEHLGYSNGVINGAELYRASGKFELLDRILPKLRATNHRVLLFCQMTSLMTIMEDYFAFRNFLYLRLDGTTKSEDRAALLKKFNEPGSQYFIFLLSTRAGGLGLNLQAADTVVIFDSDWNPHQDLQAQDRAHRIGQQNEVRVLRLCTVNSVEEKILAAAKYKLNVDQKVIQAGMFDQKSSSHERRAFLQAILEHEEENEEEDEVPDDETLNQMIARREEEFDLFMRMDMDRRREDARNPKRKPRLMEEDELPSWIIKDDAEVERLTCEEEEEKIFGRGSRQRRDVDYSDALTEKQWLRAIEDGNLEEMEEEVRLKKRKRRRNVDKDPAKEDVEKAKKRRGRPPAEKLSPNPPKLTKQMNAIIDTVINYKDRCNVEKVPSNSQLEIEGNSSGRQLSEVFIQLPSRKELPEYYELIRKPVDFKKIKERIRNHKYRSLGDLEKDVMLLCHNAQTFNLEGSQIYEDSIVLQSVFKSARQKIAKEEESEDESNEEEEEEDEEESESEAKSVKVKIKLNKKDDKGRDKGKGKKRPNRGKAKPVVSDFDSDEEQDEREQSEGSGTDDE
Sequence of BRG-1 (P51532 whole entry): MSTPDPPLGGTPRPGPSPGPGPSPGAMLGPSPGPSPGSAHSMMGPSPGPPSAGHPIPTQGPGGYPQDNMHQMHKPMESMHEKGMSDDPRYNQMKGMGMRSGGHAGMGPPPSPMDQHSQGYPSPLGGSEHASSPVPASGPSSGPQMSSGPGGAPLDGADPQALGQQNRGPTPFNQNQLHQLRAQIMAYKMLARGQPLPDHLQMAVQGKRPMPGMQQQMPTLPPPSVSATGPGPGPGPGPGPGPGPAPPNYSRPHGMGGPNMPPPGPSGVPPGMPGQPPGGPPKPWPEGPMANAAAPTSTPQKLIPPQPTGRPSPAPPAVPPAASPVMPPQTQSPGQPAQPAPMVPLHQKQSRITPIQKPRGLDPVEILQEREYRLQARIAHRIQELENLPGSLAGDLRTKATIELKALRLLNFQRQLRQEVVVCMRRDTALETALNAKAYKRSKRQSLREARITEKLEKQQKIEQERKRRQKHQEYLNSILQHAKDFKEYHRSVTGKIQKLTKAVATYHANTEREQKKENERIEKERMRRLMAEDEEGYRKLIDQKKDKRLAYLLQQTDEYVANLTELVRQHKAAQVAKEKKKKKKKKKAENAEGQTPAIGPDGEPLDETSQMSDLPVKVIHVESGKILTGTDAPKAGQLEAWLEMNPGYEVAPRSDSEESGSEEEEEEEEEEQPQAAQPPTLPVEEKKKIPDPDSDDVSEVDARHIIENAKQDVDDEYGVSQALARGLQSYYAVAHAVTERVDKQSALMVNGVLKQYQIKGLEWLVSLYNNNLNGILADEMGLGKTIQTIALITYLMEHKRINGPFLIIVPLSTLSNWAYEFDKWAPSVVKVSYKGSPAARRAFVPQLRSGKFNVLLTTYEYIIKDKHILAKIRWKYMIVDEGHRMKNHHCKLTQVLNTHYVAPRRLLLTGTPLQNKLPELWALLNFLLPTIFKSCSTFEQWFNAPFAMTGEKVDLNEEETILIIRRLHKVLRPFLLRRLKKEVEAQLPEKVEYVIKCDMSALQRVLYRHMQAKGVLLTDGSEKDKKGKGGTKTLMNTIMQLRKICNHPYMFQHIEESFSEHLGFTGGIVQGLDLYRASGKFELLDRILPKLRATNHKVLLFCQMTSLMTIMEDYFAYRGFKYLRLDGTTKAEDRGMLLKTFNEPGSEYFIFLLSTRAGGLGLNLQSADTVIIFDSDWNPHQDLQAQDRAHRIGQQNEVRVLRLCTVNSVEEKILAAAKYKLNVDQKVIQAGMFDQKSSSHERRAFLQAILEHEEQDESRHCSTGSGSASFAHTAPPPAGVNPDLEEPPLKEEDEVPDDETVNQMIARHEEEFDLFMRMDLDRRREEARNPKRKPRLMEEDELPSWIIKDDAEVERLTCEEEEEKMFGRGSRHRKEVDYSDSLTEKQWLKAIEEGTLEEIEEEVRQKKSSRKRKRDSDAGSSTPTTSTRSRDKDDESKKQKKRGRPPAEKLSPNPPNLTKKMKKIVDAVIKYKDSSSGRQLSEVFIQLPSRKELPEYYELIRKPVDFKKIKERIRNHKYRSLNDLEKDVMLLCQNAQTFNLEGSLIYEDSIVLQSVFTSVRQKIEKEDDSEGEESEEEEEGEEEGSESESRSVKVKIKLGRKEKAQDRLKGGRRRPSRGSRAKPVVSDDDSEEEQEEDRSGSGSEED

Row | Structure (SMILES) | IC50 (BRG-1; read-out: BRG1 IC50 (μM)*) [µM] | Emax (BRG-1) [%] | BRM Max % Inhibition (BRM) [%] | IC50 (BRM; read-out: BRM IC50 (μM)*) [µM] | IC50 (BRG-1; BRG1 IC50 (μM)*) [µM] | IC50 (BRM; BRM IC50 (μM)*) [µM]
1 | COC(=O)N1CCC[C@H](c2csc(NC(=O)CNC(=O)c3ccc4c(c3)C(C)(F)COC4)n2)C1 (stereo in doubt) [Compound 301, methyl (S)-3-(2-(2-((R)-4-fluoro-4-methylisochromane-6-carboxamido)acetamido)thiazol-4-yl)piperidine-1-carboxylate] | 1 to 5 | > 95 | >95 | 0.1 to 1 | – | –
2 | C[C@@H]1CN(c2cccc(-c3csc(NC(=O)CNC(=O)c4ccc5c(c4)[C@](C)(CO)CN5C)n3)c2)C[C@H](C)O1 [Compound 403, (S)-N-(2-((4-(3-((cis)-2,6-dimethylmorpholino)phenyl)thiazol-2-yl)amino)-2-oxoethyl)-3-(hydroxymethyl)-1,3-dimethylindoline-5-carboxamide] | 1 to 5 | > 90 | >90 | 0.1 to 1 | – | –
3 | CN(C)Cc1cc(-c2cccc(-c3csc(NC(=O)CNC(=O)c4cccc(C(C)(C)CN)c4)n3)c2)ccn1 [Compound 61, 3-(1-amino-2-methylpropan-2-yl)-N-(2-((4-(3-(2-((dimethylamino)methyl)pyridin-4-yl)phenyl)thiazol-2-yl)amino)-2-oxoethyl)benzamide] | 1 to 5 | > 60 | >90 | 0.1 to 1 | – | –
4 | C[C@@H]1CN(c2cccc(-c3csc(NC(=O)CNC(=O)c4ccc5c(c4)[C@H]([C@H](C)O)CC5)n3)n2)C[C@H](C)O1 [Compound 141, (3R)-N-[2-[[4-[6-[(cis)-2,6-dimethylmorpholin-4-yl]-2-pyridyl]thiazol-2-yl]amino]-2-oxo-ethyl]-3-[(1S)-1-hydroxyethyl]indane-5-carboxamide] | > 5 | > 60 | >80 | 0.1 to 1 | – | –
5 | CSCC[C@H](NC(=O)c1ccc2c(c1)C(C)(O)C(=O)N2)C(=O)Nc1nc(-c2ccccc2)cs1 (stereo partly drawn) [Compound 85, 3-hydroxy-3-methyl-N—((S)-4-(methylthio)-1-oxo-1-((4-phenylthiazol-2-yl)amino)butan-2-yl)-2-oxoindoline-5-carboxamide] | > 5 | > 60 | >80 | > 5 | – | –
6 | C[C@@]1(CO)CCc2c(C(=O)NCC(=O)Nc3nc(-c4cccc(-c5ccncc5)c4)cs3)cccc21 [Compound 197] | > 5 | < 30 | – | 1 to 5 | – | –
7 | Cc1cc(C(=O)NCC(=O)Nc2nc(-c3cccc(-c4ccncc4)c3)cs2)cc(C(C)(C)CN)c1C [Compound 97] | 1 to 5 | > 70 | >90 | 0.1 to 1 | – | –
8 | CC(C)(C#N)c1cccc(C(=O)NCC(=O)Nc2nc(-c3cccc(-c4ccncc4)c3)cs2)c1 [Compound 87, 3-(2-cyanopropan-2-yl)-N-(2-oxo-2-((4-(3-(pyridin-4-yl)phenyl)thiazol-2-yl)amino)ethyl)benzamide] | > 5 | < 30 | >80 | 0.1 to 1 | – | –
9 | COc1cccc(-c2csc(NC(=O)CNC(=O)c3cc(F)c4c(c3)[C@@](C)(C#N)COC4)n2)c1 [Compound 269, (S)-4-cyano-8-fluoro-N-(2-((4-(3-methoxyphenyl)thiazol-2-yl)amino)-2-oxoethyl)-4-methylisochromane-6-carboxamide] | > 5 | > 90 | >90 | 0.1 to 1 | – | –
10 | Cn1ncc2ccc(-c3csc(NC(=O)CNC(=O)c4ccc5c(c4)[C@](C)(CO)CC5)n3)cc21 [Compound 179, (R)-3-(hydroxymethyl)-3-methyl-N-(2-((4-(1-methyl-1H-indazol-6-yl)thiazol-2-yl)amino)-2-oxoethyl)-2,3-dihydro-1H-indene-5-carboxamide] | > 5 | > 50 | >80 | 0.1 to 1 | – | –
11 | CC(C)(CO)c1cccc(C(=O)NCC(=O)Nc2nc(-c3cccc(N4CCC(O)CC4)c3)cs2)c1 [Compound 247, 3-(2-hydroxy-1,1-dimethyl-ethyl)-N-[2-[[4-[3-(4-hydroxy-1-piperidyl)phenyl]thiazol-2-yl]amino]-2-oxo-ethyl]benzamide] | 0.1 to 1 | > 80 | >95 | 0.1 to 1 | – | –
12 | CN1C(=O)CCc2ccc(-c3csc(NC(=O)CNC(=O)c4ccc5c(c4)[C@](C)(CO)CC5)n3)cc21 [Compound 180, (R)-3-(hydroxymethyl)-3-methyl-N-(2-((4-(1-methyl-2-oxo-1,2,3,4-tetrahydroquinolin-7-yl)thiazol-2-yl)amino)-2-oxoethyl)-2,3-dihydro-1H-indene-5-carboxamide] | 1 to 5 | > 60 | >90 | 0.1 to 1 | – | –
13 | CC(C)S(=O)(=O)c1cccc(C(=O)NCC(=O)Nc2nc(-c3cccc(-c4ccnc(N)c4)c3)cs2)c1 [Compound 22, N-(2-((4-(3-(2-aminopyridin-4-yl)phenyl)thiazol-2-yl)amino)-2-oxoethyl)-3-(isopropylsulfonyl)benzamide] | – | – | >95 | – | 0.1 to 1 | < 0.1
14 | CN1C(=O)CCc2ccc(-c3csc(NC(=O)CNC(=O)c4ccc5c(c4)[C@@](C)(CO)CC5)n3)cc21 [Compound 260, (S)-3-(hydroxymethyl)-3-methyl-N-(2-((4-(1-methyl-2-oxo-1,2,3,4-tetrahydroquinolin-7-yl)thiazol-2-yl)amino)-2-oxoethyl)-2,3-dihydro-1H-indene-5-carboxamide] | > 5 | > 30 | >60 | 1 to 5 | – | –
15 | C[C@@H]1CN(c2cccc(-c3csc(NC(=O)CNC(=O)c4cccc(C5(O)COC5)c4)n3)c2)C[C@H](C)O1 [Compound 184, N-(2-((4-(3-((2R,6S)-2,6-dimethylmorpholino)phenyl)thiazol-2-yl)amino)-2-oxoethyl)-3-(3-hydroxyoxetan-3-yl)benzamide] | 1 to 5 | > 80 | >90 | 0.1 to 1 | – | –
16 | C[Si](C)(C)c1cccc(C(=O)NCC(=O)Nc2nc(-c3cccc(-c4ccncc4)c3)cs2)c1 [Compound 248, N-[2-oxo-2-[[4-[3-(4-pyridyl)phenyl]thiazol-2-yl]amino]ethyl]-3-trimethylsilyl-benzamide] | 1 to 5 | > 30 | >40 | 0.1 to 1 | – | –

Continued, in another order:

Row | IC50 (BRG-1; read-out: BRG1 IC50 (μM)*) [µM] | Emax (BRG-1) [%] | BRM Max % Inhibition (BRM) [%] | IC50 (BRM; read-out: BRM IC50 (μM)*) [µM] | Structure (SMILES) | IC50 (BRG-1; BRG1 IC50 (μM)*) [µM] | IC50 (BRM; BRM IC50 (μM)*) [µM]
17 | 0.1 to 1 | > 80 | >95 | 0.1 to 1 | COC[C@H](NC(=O)c1cccc(S(=O)(=O)C(C)C)c1)C(=O)Nc1nc(-c2cccc(-c3ccnc(C)c3)c2)cs1 [Compound 32, (S)-3-(isopropylsulfonyl)-N-(3-methoxy-1-((4-(3-(2-methylpyridin-4-yl)phenyl)thiazol-2-yl)amino)-1-oxopropan-2-yl)benzamide] | – | –
18 | 0.1 to 1 | > 50 | >80 | 0.1 to 1 | CC(C(F)(F)F)S(=O)(=O)c1cccc(C(=O)NCC(=O)Nc2nc(-c3cccc(-c4ccncc4)c3)cs2)c1 (stereo not shown) [Compound 112] | – | –
19 | < 0.1 | > 95 | >95 | < 0.1 | C[C@@H]1CN(c2cccc(-c3csc(NC(=O)CNC(=O)c4ccc5c(c4)S(=O)(=O)CCCC5)n3)c2)C[C@H](C)O1 [Compound 128, N-(2-((4-(3-((cis)-2,6-dimethylmorpholino)phenyl)thiazol-2-yl)amino)-2-oxoethyl)-2,3,4,5-tetrahydrobenzo[b]thiepine-8-carboxamide 1,1-dioxide] | – | –
20 | 0.1 to 1 | > 95 | >95 | < 0.1 | Cc1cc(-c2cccc(-c3csc(NC(=O)CNC(=O)c4ccc(C)c(C(C)(C)CN)c4)n3)c2)cc(C)n1 [Compound 92] | – | –
21 | 0.1 to 1 | > 80 | >95 | < 0.1 | Cc1cc(-c2cccc(-c3csc(NC(=O)CNC(=O)c4cccc(S(=O)(=O)C(C)C)c4)n3)n2)ncn1 [Compound 117, 3-isopropylsulfonyl-N-[2-[[4-[6-(6-methylpyrimidin-4-yl)-2-pyridyl]thiazol-2-yl]amino]-2-oxo-ethyl]benzamide] | – | –
22 | 0.1 to 1 | > 95 | >95 | < 0.1 | C[C@@]1(C#N)COCc2ccc(C(=O)NCC(=O)Nc3nc(-c4cccc([C@]56CCOC[C@H]5C6)n4)cs3)cc21 [Compound 293, (R)-N-(2-((4-(6-((1S,6R)-3-oxabicyclo[4.1.0]heptan-6-yl)pyridin-2-yl)thiazol-2-yl)amino)-2-oxoethyl)-4-cyano-4-methylisochromane-6-carboxamide] | – | –
23 | 0.1 to 1 | > 95 | >95 | < 0.1 | C[C@@H]1CN(c2cccc(-c3csc(NC(=O)CNC(=O)c4ccc5c(c4)C4(CCO4)COC5)n3)n2)C[C@H](C)O1 (stereo partly drawn) [Compound 376, N-(2-((4-(6-((cis)-2,6-dimethylmorpholino)pyridin-2-yl)thiazol-2-yl)amino)-2-oxoethyl)spiro[isochromane-4,2′-oxetane]-6-carboxamide] | – | –
24 | < 0.1 | > 95 | >95 | < 0.1 | Cc1nccc(-c2cccc(-c3csc(NC(=O)CNC(=O)c4cccc(S(=O)(=O)C(C)C)c4)n3)c2)n1 [Compound 13, 3-(isopropylsulfonyl)-N-(2-((4-(3-(2-methylpyrimidin-4-yl)phenyl)thiazol-2-yl)amino)-2-oxoethyl)benzamide] | – | –
